Data reported in PMC6934184, “Selective DNA-PKcs inhibition extends the therapeutic index of localized radiotherapy and chemotherapy” (The Journal of Clinical Investigation, 2019).

Target: T1, ABL1 Y253F (Homo sapiens, UniProt P00519, Y253F)
T1 construct: purchased Thermo Fisher Scientific (Life Technologies) SelectScreen
Experiment: SelectScreen Z'LYTE
Type: biochemical
Summary of the method: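 NU5455 was profiled across the SelectScreen Broad panel of kinase activity and binding assays. Z'LYTE reactions such as CSF1R ran at apparent Km ATP, while the Adapta CAMK1 assay used ATP listed as 10. Values are given as percent.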

CN(C(=O)CN1CCOCC1)c1ccc2sc3c(-c4cccc5c(=O)cc(N6CC7CCC(C6)O7)oc45)cccc3c2c1 [NU5455]
inhibition at 1 µM: 5.9%
